The text below walks through data of ChEMBL document CHEMBL5465560, “Selectivity Literature for EUbOPEN Chemogenomic Library” (2024).

The target of assay [1] is Misshapen-like kinase 1 (Homo sapiens, UniProt Q8N4C8). Description: Selectivity interaction (Upstate Kinase Profiler service (Millipore)) EUB0000056c MINK1. Conditions: at 1 µM.
Assay [2] relates to Mast/stem cell growth factor receptor Kit (Homo sapiens), P10721 [V559D]. Conditions: at 10 µM.
In assay [3] the target is Fibroblast growth factor receptor 4 (Homo sapiens, UniProt P22455). To be noted: at 10 µM.
Assay [4] relates to Tyrosine-protein kinase ABL1 (Homo sapiens), P00519 [F317L]. As to the kind of experiment: Selectivity interaction (Ambit KINOMEscan and KiNATiv profiling in Jurkat cells) EUB0000090b ABL1. Conditions: at 1 µM. Type of assay: cell-based.
The target in assay [5] is Serine/threonine-protein kinase B-raf (Homo sapiens) (UniProt P15056). To be noted: at 10 µM.
In assay [6] the target is Citron Rho-interacting kinase (Homo sapiens) (UniProt O14578). As to the kind of experiment: Selectivity interaction (KinomeScan (DiscoverX)) EUB0000092b CIT. To be noted: at 10 µM.
The target of assay [7] is Myosin light chain kinase, smooth muscle (Homo sapiens, UniProt Q15746). Description: Selectivity interaction (KinomeScan (DiscoverX)) EUB0001049a MYLK. To be noted: at 1 µM.
Assay [8] concerns the target T1, Protein kinase C epsilon type (Homo sapiens) (UniProt Q02156).
T1 sequence (whole entry): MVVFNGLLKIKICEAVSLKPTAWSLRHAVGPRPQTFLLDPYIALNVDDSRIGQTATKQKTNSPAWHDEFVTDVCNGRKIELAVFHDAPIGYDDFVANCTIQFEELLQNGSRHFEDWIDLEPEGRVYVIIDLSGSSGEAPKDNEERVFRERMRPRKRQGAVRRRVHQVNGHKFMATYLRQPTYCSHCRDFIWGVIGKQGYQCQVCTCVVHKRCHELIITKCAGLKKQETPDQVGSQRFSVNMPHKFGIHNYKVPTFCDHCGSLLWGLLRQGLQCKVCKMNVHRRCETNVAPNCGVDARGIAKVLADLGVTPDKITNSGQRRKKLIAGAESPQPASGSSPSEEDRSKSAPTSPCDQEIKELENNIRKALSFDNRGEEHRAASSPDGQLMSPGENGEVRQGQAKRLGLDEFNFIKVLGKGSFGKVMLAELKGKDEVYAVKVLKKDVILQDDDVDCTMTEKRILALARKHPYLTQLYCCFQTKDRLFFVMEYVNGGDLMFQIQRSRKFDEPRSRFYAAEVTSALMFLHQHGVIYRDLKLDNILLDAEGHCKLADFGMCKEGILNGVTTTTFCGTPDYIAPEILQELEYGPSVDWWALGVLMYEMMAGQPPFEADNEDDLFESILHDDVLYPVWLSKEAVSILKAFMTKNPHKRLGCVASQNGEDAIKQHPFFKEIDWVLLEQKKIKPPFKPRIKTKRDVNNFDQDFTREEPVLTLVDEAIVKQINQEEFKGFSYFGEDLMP
As to the kind of experiment: Selectivity interaction (KinomeScan (DiscoverX)) EUB0000695a PRKCE. To be noted: at 100 nM.

Assay [9] deals with Non-receptor tyrosine-protein kinase TYK2 (Homo sapiens, UniProt P29597). As to the kind of experiment: Selectivity interaction (Kinase panel (Carna Biosciences)) EUB0001542aTs TYK2. To be noted: at 1 µM.
The target in assay [10] is Mitogen-activated protein kinase 10 (Homo sapiens, UniProt P53779). As to the kind of experiment: Selectivity interaction (ActivX KiNativ screen (kinase selectivity in THP-1 cell lysates)) EUB0000639a MAPK10. The assay is classed as subcellular. Conditions: lysate.
Mitogen-activated protein kinase 10, sequence (P53779 whole entry): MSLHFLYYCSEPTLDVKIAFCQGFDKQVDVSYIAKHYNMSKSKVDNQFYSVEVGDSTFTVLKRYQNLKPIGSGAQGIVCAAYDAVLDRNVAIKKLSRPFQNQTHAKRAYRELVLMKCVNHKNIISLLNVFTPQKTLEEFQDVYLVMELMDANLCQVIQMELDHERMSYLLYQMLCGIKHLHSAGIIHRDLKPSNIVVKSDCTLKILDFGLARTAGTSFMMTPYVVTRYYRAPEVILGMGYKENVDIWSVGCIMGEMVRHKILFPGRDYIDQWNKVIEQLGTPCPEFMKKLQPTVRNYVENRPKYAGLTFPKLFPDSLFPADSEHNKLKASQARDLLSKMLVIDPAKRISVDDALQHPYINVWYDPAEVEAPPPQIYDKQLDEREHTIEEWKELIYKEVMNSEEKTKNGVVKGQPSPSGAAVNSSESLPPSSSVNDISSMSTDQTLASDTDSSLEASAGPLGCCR
Assay [11] deals with Cyclin-dependent kinase 18 (Homo sapiens) (UniProt Q07002). Description: Selectivity interaction (ActivX KiNativ screen (kinase selectivity in THP-1 cell lysates)) EUB0000639a CDK18. Type of assay: subcellular. Conditions: lysate.
Cyclin-dependent kinase 18 (Homo sapiens), sequence (Q07002 whole entry): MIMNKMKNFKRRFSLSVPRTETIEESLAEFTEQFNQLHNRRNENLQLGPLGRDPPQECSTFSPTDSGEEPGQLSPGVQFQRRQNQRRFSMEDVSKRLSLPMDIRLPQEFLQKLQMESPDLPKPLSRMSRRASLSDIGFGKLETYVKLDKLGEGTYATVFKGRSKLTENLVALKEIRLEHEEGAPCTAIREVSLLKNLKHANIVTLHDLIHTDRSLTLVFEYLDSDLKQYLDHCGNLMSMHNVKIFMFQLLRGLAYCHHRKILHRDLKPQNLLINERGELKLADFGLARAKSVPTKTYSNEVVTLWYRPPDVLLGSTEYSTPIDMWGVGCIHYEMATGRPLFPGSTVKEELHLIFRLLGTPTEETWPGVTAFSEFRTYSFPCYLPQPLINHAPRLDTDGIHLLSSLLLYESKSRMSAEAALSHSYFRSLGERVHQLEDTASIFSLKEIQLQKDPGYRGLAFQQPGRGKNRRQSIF
Assay [12] has as its target Protein-tyrosine kinase 6 (Homo sapiens, UniProt Q13882).
For assay [13], the target named is Phosphatidylinositol 3-kinase catalytic subunit type 3 (Homo sapiens, UniProt Q8NEB9). Description: Selectivity interaction (KinomeScan (DiscoverX)) EUB0000229b PIK3C3. To be noted: at 10 µM.
Assay [14] addresses T2, Serine/threonine-protein kinase Sgk1 (Homo sapiens) (UniProt O00141).
T2 sequence (whole entry): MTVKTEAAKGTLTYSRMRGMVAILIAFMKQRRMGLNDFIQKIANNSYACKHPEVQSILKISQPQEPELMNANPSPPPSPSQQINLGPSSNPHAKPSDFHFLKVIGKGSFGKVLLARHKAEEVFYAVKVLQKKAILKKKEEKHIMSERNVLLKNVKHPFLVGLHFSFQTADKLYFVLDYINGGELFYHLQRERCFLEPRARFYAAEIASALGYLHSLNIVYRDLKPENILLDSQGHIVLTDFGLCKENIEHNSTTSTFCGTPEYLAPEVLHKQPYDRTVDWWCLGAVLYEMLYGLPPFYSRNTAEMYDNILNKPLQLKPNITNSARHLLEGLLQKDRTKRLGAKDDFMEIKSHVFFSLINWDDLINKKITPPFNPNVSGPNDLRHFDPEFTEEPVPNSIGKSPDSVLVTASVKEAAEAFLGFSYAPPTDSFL
As to the kind of experiment: Selectivity interaction (KinomeScan (DiscoverX)) EUB0001619a SGK1. Conditions: at 1 µM.

Assay [15] concerns the target Serine/threonine-protein kinase ATR (Homo sapiens) (UniProt Q13535). Description: Selectivity interaction (Kinase panel (KiNativ target engagement assay in Jurkat cells)) EUB0001635a ATR. Type of assay: cell-based. To be noted: at 1 µM.
Assay [16] concerns the target Phosphatidylinositol 4,5-bisphosphate 3-kinase catalytic subunit beta isoform (Homo sapiens) (UniProt P42338). As to the kind of experiment: Selectivity interaction (KinomeScan (DiscoverX)) EUB0000618a PIK3CB. Conditions: at 10 µM.

Structures are written as SMILES. Where only a bound is given, the exact number is not on record here.

Serine/threonine-protein kinase ATR (Homo sapiens), sequence (Q13535 whole entry, looked up, canonical isoform): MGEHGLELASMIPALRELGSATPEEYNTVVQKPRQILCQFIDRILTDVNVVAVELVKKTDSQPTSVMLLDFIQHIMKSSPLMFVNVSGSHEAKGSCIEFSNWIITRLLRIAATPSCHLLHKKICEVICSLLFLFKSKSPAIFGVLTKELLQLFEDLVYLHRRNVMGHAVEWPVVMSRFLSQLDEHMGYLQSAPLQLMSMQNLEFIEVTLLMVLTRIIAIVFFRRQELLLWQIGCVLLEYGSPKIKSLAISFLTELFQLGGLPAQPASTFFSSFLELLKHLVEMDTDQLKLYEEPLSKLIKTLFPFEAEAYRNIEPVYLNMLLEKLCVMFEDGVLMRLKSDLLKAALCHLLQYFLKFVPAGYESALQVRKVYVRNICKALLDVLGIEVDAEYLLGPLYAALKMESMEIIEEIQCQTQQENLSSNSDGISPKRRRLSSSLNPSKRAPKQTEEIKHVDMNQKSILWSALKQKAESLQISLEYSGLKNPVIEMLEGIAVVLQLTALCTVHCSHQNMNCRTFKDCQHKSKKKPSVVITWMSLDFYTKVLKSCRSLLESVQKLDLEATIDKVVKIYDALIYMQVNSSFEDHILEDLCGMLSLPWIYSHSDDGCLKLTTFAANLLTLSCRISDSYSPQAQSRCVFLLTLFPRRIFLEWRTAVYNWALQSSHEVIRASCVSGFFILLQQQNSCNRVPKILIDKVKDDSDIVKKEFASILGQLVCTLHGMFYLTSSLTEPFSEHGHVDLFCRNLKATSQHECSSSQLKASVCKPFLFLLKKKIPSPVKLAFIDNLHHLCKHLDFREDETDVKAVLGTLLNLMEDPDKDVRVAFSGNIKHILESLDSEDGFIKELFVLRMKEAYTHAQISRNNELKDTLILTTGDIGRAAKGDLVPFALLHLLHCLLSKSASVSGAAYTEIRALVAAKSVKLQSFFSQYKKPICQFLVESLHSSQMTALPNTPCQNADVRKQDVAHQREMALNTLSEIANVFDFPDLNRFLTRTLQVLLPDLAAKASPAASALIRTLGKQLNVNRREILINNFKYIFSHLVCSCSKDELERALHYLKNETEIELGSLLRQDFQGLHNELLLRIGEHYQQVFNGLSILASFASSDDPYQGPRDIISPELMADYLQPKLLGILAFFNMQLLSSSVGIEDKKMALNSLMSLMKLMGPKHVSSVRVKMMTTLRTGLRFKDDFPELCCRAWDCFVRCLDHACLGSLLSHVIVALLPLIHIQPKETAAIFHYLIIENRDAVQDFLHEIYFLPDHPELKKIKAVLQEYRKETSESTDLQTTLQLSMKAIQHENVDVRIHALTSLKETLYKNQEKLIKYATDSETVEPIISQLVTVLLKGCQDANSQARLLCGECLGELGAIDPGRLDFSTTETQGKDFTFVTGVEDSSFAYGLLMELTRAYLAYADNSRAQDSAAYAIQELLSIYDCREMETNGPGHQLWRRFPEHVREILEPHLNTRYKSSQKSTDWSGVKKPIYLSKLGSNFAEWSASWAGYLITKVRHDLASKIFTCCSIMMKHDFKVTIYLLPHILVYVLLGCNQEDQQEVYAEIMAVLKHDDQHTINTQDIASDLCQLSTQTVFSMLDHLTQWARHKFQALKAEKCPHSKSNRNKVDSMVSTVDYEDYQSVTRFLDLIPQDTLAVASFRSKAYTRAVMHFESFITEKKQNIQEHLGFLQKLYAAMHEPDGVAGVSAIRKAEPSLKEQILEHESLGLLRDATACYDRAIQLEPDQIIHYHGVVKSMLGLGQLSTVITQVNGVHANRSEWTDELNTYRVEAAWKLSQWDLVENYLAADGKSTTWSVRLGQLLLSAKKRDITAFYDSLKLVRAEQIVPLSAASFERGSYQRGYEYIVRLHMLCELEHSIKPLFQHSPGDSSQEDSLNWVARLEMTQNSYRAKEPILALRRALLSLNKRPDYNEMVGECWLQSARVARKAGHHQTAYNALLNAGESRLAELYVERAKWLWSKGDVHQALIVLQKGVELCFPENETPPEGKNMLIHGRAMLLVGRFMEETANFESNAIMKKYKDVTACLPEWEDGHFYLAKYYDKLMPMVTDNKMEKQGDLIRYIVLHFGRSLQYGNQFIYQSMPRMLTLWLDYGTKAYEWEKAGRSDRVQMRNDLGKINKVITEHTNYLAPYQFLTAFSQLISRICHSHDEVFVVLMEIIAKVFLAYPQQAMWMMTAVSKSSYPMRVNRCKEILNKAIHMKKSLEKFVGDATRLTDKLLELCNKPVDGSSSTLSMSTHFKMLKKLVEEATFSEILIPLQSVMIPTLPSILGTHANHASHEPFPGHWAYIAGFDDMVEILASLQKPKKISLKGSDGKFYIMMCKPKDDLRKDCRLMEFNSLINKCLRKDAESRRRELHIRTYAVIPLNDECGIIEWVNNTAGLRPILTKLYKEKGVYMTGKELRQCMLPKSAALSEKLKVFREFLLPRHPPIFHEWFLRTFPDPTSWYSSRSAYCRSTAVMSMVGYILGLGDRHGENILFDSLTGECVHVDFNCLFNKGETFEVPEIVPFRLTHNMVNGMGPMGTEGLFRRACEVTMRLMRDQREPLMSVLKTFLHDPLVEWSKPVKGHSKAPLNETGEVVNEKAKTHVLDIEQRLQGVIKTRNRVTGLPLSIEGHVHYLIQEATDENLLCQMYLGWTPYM
Phosphatidylinositol 4,5-bisphosphate 3-kinase catalytic subunit beta isoform (Homo sapiens), sequence (P42338 whole entry, looked up, canonical isoform): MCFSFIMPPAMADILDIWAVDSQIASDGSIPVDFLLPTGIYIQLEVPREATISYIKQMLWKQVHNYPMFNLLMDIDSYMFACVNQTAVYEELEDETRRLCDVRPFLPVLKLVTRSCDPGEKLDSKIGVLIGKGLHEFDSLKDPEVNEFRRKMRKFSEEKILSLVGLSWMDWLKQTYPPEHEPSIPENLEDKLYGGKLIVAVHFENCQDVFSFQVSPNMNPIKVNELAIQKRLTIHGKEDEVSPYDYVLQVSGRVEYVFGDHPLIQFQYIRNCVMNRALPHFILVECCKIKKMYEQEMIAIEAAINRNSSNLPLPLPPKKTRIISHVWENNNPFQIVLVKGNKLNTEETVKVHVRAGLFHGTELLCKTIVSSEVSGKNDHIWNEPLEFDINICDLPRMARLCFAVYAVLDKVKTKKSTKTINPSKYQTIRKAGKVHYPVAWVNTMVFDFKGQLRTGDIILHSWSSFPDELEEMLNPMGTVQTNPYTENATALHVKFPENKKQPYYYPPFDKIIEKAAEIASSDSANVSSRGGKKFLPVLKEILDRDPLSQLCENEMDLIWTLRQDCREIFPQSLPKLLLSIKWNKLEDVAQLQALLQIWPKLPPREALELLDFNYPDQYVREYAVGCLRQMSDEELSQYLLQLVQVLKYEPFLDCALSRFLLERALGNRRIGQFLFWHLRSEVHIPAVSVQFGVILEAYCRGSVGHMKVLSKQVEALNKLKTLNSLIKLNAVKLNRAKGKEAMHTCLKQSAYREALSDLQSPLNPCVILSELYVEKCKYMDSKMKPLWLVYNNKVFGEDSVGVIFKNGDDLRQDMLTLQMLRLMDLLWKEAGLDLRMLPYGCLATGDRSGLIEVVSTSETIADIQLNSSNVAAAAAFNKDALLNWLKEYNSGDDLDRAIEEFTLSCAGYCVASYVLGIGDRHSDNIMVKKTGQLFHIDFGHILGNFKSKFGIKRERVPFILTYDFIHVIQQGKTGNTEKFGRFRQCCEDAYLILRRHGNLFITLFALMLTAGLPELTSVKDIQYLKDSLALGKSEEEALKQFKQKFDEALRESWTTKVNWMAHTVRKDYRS
Protein-tyrosine kinase 6, sequence (Q13882 whole entry): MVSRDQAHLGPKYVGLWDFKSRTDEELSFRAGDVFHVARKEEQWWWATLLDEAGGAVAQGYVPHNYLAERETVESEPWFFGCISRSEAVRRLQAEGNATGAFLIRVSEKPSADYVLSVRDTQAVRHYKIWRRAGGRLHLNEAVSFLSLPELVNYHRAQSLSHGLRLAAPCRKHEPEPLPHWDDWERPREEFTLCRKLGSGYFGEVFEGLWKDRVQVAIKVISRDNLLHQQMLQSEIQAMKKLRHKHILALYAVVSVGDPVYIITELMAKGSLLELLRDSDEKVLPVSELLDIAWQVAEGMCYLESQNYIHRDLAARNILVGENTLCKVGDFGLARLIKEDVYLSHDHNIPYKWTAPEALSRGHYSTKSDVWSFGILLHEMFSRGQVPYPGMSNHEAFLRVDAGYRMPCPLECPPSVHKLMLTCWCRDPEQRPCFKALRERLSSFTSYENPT

Regarding `Cc1ccc(-c2ccc3c(ccc4sc5c(c43)NC[C@@H](C)NC5=O)n2)cn1`, the % of inhibition in assay [1] is 11%.
`Cc1cc([C@@H](C)Nc2ccccc2C(=O)O)c2nc(N3CCOCC3)cc(=O)n2c1` [AZD-6482]: the % of control in assay [2] was 91%; in [3], 100%.
In [4], `CN(C)C/C=C/C(=O)Nc1ccc(C(=O)N2CCCC(Nc3ncc(Cl)c(-c4c[nH]c5ccccc45)n3)C2)cc1` (centres undefined) displayed a % of control of 100%.
With `CCN(CC)CCCCNc1ncc2cc(-c3cc(OC)cc(OC)c3)c(NC(=O)NC(C)(C)C)nc2n1`, in assay [5], the % of control was 100%.
With `CCC(=O)N1CCN(c2ccc(-n3c(=O)ccc4cnc5ccc(-c6cnc7ccccc7c6)cc5c43)cc2C(F)(F)F)CC1`, in assay [6], the % of control was found to be 59%.
`COc1cc(Nc2nc(C)cc(-c3cnn4nc(OC)ccc34)n2)cc(C(F)(F)F)c1` returned a % of control in assay [7] of 58%.
On to `Cc1cc(F)c(C(=O)Nc2cccc(-c3nncn3C(C)C)n2)cc1-n1cnc(C2CC2)c1`, for which the % of control in assay [8] turned out to be 97%.
With `Cn1cc(Nc2nccc(N3CC4CCC(C3)N4C(=O)[C@@H]3CC3(F)F)n2)cn1`, the % of inhibition in assay [9] came out at 98%.
Take `CC[C@@H]1[C@H](F)C(=O)N[C@@H]1COc1nccc2cc(C(N)=O)c(OC)cc12` [ZIMLOVISERTIB]: the % of inhibition was 13.3% in assay [10] (at 0.01 µM); -1.4% in [10] (at 0.04 µM); 1.6% in assay [10] (at 0.2 µM); 27.7% in [10] (at 1 µM); 57.5% in assay [10] (at 5 µM); -0.6% in [11] (at 0.01 µM). The % of inhibition was 0.5% in assay [11] (at 0.04 µM), -0.8% in assay [11] (at 0.2 µM), 7.7% in assay [11] (at 1 µM) and 41.7% in assay [11] (at 5 µM).
The compound `CCc1cccc(CC)c1NC(=O)c1nn(C)c2c1CCc1cnc(Nc3ccc(C(=O)NC4CCN(C)CC4)cc3OC(F)(F)F)nc1-2` had an IC50 in [12] above 10 µM.
The compound `COc1cc(N(C)c2ccnc3ccc(C(F)(F)F)cc23)cc(OC)c1OC` returned a % binding in [13] of 93%.
Turning to `N#Cc1cccc(-c2c[nH]c3ncnc(N4CCOCC4)c23)c1`, the % of control in assay [14] was 65%.
For the compound `C=CC(=O)Nc1ccc(C(=O)Nc2[nH]nc3c2CN(C(=O)N[C@H](CN(C)C)c2ccccc2)C3(C)C)cc1`, in assay [15], the % of engagement was -11.3%.
On to `O[C@H]1CC[C@H](Nc2ncc3nc(Nc4c(F)cc(F)cc4F)n([C@H]4CCOC4)c3n2)CC1`, for which the % of control in assay [16] is 100%.
